The values that follow come from ChEMBL document CHEMBL3045007, “Aryloxyacetic esters structurally related to -Asarone as potential antifungal agents” (2010).

Assay [1] relates to Cryptococcus gattii species complex. In words: Antifungal activity against Cryptococcus gattii after 48 hr by broth microdilution method. Format: functional, Cryptococcus bacillisporus. To be noted: for MIC50: Cryptococcus gattii species complex, 48 h. On the technique in general: Broth dilution looks for growth in wells or tubes with falling amounts of substance.
The subject of assay [2] is Cryptococcus deneoformans. In words: Antifungal activity against Cryptococcus neoformans var. neoformans after 48 hr by broth microdilution method. In kind it is functional. To be noted: for MIC50: Cryptococcus deneoformans, 48 h.

Values after ≈ are worked out from the molar mass of the structure shown. Active and inactive are the calls of the source. The calls are words filed in the database; no cut-off is given here. Where only a bound is given, the exact number is not on record here.

For the compound `CCCOC(=O)COc1cccc(OC)c1`, the MIC50 (commonly an inhibitory concentration at the 50% level, which refers to growth in some studies and to a panel of isolates in others) was 64 µg/mL (≈ 285 µM) in assay [1] and 0.5 µg/mL (≈ 2.23 µM) in assay [2]. Further, in assay [2], the “MFC>99” value is greater than 64 µg/mL.

As to `COc1cc(C)ccc1OCC(=O)OC(C)C`, in assay [1], the “MFC>99” value is 0.25 µg/mL (≈ 1.05 µM) and the MIC50 is 0.25 µg/mL (≈ 1.05 µM). Further, the MIC50 in assay [2] came out at 64 µg/mL (≈ 269 µM).

In the case of `CCCOC(=O)COc1ccc(C)cc1OC`, the outcome in assay [1] (Cryptococcus bacillisporus) and in assay [2] was Active. Besides, the MIC50 in assay [1] stood at 0.25 µg/mL (≈ 1.05 µM); in assay [2] it was 2 µg/mL (≈ 8.39 µM).

Take `C[C@@H]1[C@H](O)[C@@H](C)/C=C/C=C/C=C/C=C/C=C/C=C/C=C/[C@H](O[C@@H]2O[C@H](C)[C@@H](O)[C@H](N)[C@@H]2O)C[C@@H]2O[C@](O)(C[C@@H](O)C[C@@H](O)[C@H](O)CC[C@@H](O)C[C@@H](O)CC(=O)O[C@H]1C)C[C@H](O)[C@H]2C(=O)O` [AMPHOTERICIN B]: the MIC50 in assay [1] and in assay [2] was 0.12 µg/mL (≈ 0.13 µM) throughout.

On to `CCCCCOC(=O)COc1ccc(C)cc1OC`, for which, in assay [1], the “MFC>99” value stood at 0.5 µg/mL (≈ 1.88 µM) and the MIC50 was 0.5 µg/mL (≈ 1.88 µM). Moreover, in assay [2], the MIC50 came out at 32 µg/mL (≈ 120 µM).

Consider `COc1cc(C)ccc1OCC(=O)Oc1ccc(Cl)cc1`, for which, in assay [1], the “MFC>99” value was 0.5 µg/mL (≈ 1.63 µM) and the MIC50 is 0.5 µg/mL (≈ 1.63 µM). Besides, in assay [2], the “MFC>99” value came out at 0.25 µg/mL (≈ 0.815 µM) and the MIC50 turned out to be 0.25 µg/mL (≈ 0.815 µM).

Take `CC[C@H](C)C[C@H](C)CCCCCCCCC(=O)N[C@H]1C[C@@H](O)[C@@H](NCCN)NC(=O)[C@@H]2[C@@H](O)CCN2C(=O)[C@H]([C@H](O)CCN)NC(=O)[C@H]([C@H](O)[C@@H](O)c2ccc(O)cc2)NC(=O)[C@@H]2C[C@@H](O)CN2C(=O)[C@H]([C@@H](C)O)NC1=O` [CASPOFUNGIN]: the MIC50 amounted to 16 µg/mL (≈ 14.6 µM) in assay [1] and 8 µg/mL (≈ 7.32 µM) in assay [2].

For `CCCCCOC(=O)COc1ccccc1` [N-AMYL PHENOXYACETATE], in assay [1], the “MFC>99” value was determined as 2 µg/mL (≈ 9 µM) and the MIC50 was 2 µg/mL (≈ 9 µM). Also, in assay [2], the “MFC>99” value came to 64 µg/mL (≈ 288 µM) and the MIC50 was 16 µg/mL (≈ 72 µM).

Take `Cc1ccc(OCC(=O)OC(C)C)cc1` [ISOPROPYL 4-METHYLPHENOXYACETATE]: the MIC50 in assay [1] worked out at 128 µg/mL (≈ 615 µM). In assay [2], the “MFC>99” value was greater than 64 µg/mL and the MIC50 was 8 µg/mL (≈ 38.4 µM).

`COC(=O)COc1ccccc1OC` came in with an MIC50 in assay [1] of 128 µg/mL (≈ 652 µM). Moreover, in assay [2], the “MFC>99” value is greater than 64 µg/mL and the MIC50 turned out to be 0.5 µg/mL (≈ 2.55 µM).

For `CCC(C)n1ncn(-c2ccc(N3CCN(c4ccc(OCC5COC(Cn6cncn6)(c6ccc(Cl)cc6Cl)O5)cc4)CC3)cc2)c1=O` (stereo not given) [ITRACONAZOLE], the MIC50 in assay [1] and in assay [2] was 0.03 µg/mL (≈ 0.0425 µM) in each case.

In the case of `CC(=O)N1CCN(c2ccc(OCC3COC(Cn4ccnc4)(c4ccc(Cl)cc4Cl)O3)cc2)CC1` (stereo not given) [KETOCONAZOLE], the MIC50 in assay [1] worked out at 0.06 µg/mL (≈ 0.113 µM); in assay [2], 0.12 µg/mL (≈ 0.226 µM).

Turning to `CCCCCOC(=O)COc1ccccc1OC`, the MIC50 in assay [1] was 64 µg/mL (≈ 254 µM); in assay [2], 16 µg/mL (≈ 63.4 µM). Further, in assay [2], the “MFC>99” value is greater than 64 µg/mL.

In the case of `OC(Cn1cncn1)(Cn1cncn1)c1ccc(F)cc1F` [FLUCONAZOLE], the MIC50 in assay [1] and in assay [2] was 4 µg/mL (≈ 13.1 µM) each time.
